Data as given in patent US9676714B2, “Sulfonylindole derivatives and method for preparing the same” (Daewoong Pharmaceutical Co., Ltd., priority 2013, dated 2017).
Counter-ions that a name gives are not always drawn.

Target: T1, proton pump (H+/K+-ATPase) (Sus scrofa, UniProt P19156)
T1 construct: Gastric vesicles were prepared from hog stomach via centrifugal separation; from tissue; host or cells: hog stomach (gastric vesicles, method of Rabon et al. 1988)
Assay: Measurement of inhibitory effects on proton pump (H+/K+-ATPase) activities
Type: biochemical
Settings: hog gastric vesicles, K+-specific H+/K+-ATPase activity, Tris-HCl buffer pH 7.4, 37° C. for 40 minutes, malachite green Pi readout
Method in brief: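 Hog gastric vesicles in 60 mmol/l Tris-HCl pH 7.4 with 0.5% DMSO were treated with compounds at room temperature; reaction was started with 10 μl of 10 mmol/l ATP stock. Released Pi was read at 570 nm, K+-specific activity taken as the ±K+ difference. IC50 from 4-parameter logistic fit.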

T1 sequence (P19156 whole entry): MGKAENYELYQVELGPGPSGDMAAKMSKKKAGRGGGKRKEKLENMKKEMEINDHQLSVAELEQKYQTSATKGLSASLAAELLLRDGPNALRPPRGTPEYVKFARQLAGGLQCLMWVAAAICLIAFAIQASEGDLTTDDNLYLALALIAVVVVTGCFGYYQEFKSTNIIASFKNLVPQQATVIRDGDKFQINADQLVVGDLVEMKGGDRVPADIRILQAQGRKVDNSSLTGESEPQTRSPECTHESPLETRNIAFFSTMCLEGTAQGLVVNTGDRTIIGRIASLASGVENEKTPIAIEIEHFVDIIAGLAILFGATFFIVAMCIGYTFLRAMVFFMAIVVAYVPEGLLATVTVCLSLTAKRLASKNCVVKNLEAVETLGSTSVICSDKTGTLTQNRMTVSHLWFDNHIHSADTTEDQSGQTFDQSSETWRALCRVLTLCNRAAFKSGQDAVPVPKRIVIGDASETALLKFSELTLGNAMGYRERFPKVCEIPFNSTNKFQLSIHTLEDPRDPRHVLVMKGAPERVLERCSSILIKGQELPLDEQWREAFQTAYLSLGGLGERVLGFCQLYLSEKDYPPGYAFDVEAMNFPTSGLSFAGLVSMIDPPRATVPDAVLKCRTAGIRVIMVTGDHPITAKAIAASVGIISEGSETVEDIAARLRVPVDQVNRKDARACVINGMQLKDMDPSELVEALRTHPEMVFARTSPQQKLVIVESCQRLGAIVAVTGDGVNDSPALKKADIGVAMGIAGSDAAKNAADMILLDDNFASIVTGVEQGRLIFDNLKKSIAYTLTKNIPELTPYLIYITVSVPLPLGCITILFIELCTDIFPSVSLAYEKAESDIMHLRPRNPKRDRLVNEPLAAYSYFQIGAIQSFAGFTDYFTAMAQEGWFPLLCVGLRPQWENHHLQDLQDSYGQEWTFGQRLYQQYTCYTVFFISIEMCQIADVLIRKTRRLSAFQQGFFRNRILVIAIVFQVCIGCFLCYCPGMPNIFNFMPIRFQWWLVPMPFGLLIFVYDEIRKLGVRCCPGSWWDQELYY
T1 sequence (P18434 whole entry partner): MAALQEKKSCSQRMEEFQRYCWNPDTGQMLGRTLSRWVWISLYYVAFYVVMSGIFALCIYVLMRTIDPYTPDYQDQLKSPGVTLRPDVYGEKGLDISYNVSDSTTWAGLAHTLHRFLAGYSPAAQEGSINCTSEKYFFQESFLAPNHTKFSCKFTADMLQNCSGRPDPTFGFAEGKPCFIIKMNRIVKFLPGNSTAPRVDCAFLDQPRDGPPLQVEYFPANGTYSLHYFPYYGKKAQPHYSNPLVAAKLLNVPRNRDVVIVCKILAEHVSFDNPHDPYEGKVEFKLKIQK

| Structure (SMILES) | IC50 [µM] |
| --- | --- |
| CNCc1cn(S(=O)(=O)c2cccnc2)c2cc(Nc3ccc(C(F)(F)F)cc3F)ccc12 [Example 33, N-(2-fluoro-4-(trifluoromethyl)phenyl)-3-((methylamino)methyl)-1-(pyridin-3-ylsulfonyl)-1H-indol-6-amine hydrochloride] | 1.36 |
| CNCc1cn(S(=O)(=O)c2cccnc2)c2cc(Nc3c(F)cc(Br)cc3F)ccc12 [Example 92, N-(4-bromo-2,6-difluorophenyl)-3-((methylamino)methyl)-1-(pyridin-3-ylsulfonyl)-1H-indol-6-amine hydrochloride] | 1.51 |
| CNCc1cn(S(=O)(=O)c2cccc(C(F)(F)F)c2)c2cc(Nc3ccc(Cl)cc3C(F)(F)F)ccc12 [Example 186, N-(4-chloro-2-(trifluoromethyl)phenyl)-3-((methylamino)methyl)-1-((3-(trifluoromethyl)phenyl)sulfonyl)-1H-indol-6-amine hydrochloride] | 0.41 |
| CNCc1cn(S(=O)(=O)c2cccc(C(F)(F)F)c2)c2cc(Nc3ccc(OC)cc3F)ccc12 [Example 188, N-(2-fluoro-4-methoxyphenyl)-3-((methylamino)methyl)-1-((3-(trifluoromethyl)phenyl)sulfonyl)-1H-indol-6-amine hydrochloride] | 0.4 |
| CNCc1cn(S(=O)(=O)c2cccnc2)c2cc(Nc3ccc(Oc4ccc(F)cc4)cc3)ccc12 [Example 18, N-(4-(4-fluorophenoxy)phenyl)-3-((methylamino)methyl)-1-(pyridin-3-ylsulfonyl)-1H-indol-6-amine hydrochloride] | 1.3 |
| CNCc1cn(S(=O)(=O)c2cccnc2)c2cc(Nc3c(F)c(F)cc(F)c3F)ccc12 [Example 95, 3-((methylamino)methyl)-1-(pyridin-3-ylsulfonyl)-N-(2,3,5,6-tetrafluorophenyl)-1H-indol-6-amine hydrochloride] | 0.48 |
| CNCc1cn(S(=O)(=O)c2cccnc2)c2cc(Nc3c(C)cc(Cl)cc3C)ccc12 [Example 85, N-(4-chloro-2,6-dimethylphenyl)-3-((methylamino)methyl)-1-(pyridin-3-ylsulfonyl)-1H-indol-6-amine hydrochloride] | 0.37 |
| CNCc1cn(S(=O)(=O)c2cccnc2)c2cc(Nc3ccc(C#N)cc3C(F)(F)F)ccc12 [Example 40, 4-((3-((methylamino)methyl)-1-(pyridin-3-ylsulfonyl)-1H-indol-6-yl)amino)-3-(trifluoromethyl)benzonitrile hydrochloride] | 1.83 |
| CCOc1c(F)ccc(Nc2ccc3c(CNC)cn(S(=O)(=O)c4cccnc4)c3c2)c1F [Example 69, N-(3-ethoxy-2,4-difluorophenyl)-3-((methylamino)methyl)-1-(pyridin-3-ylsulfonyl)-1H-indol-6-amine hydrochloride] | 2.35 |
| CNCc1cn(S(=O)(=O)c2cccnc2)c2cc(Nc3c(Cl)cc(Cl)cc3Cl)ccc12 [Example 87, 3-((methylamino)methyl)-1-(pyridin-3-ylsulfonyl)-N-(2,4,6-trichlorophenyl)-1H-indol-6-amine hydrochloride] | 0.4 |
| CNCc1cn(S(=O)(=O)c2cc(C)ccc2C)c2cc(Nc3ccc(C)cc3F)ccc12 [Example 236, 1-((2,5-dimethylphenyl)sulfonyl)-N-(2-fluoro-4-methylphenyl)-3-((methylamino)methyl)-1H-indol-6-amine hydrochloride] | 2.04 |
| CNCc1cn(S(=O)(=O)c2cccc(OC(F)(F)F)c2)c2cc(Nc3ccc(OC)cc3F)ccc12 [Example 199, N-(2-fluoro-4-methoxyphenyl)-3-(methylamino)methyl)-1-((3-(trifluoromethoxy)phenyl)sulfonyl)-1H-indol-6-amine hydrochloride] | 0.34 |
| CNCc1cn(S(=O)(=O)c2cccc(F)c2)c2cc(Nc3ccc(C)cc3F)ccc12 [Example 136, N-(2-fluoro-4-methylphenyl)-1-((3-fluorophenyl)sulfonyl)-3-((methylamino)methyl)-1H-indol-6-amine hydrochloride] | 0.71 |
| CNCc1cn(S(=O)(=O)c2ccccc2)c2cc(Nc3ccc(C)cc3F)ccc12 [Example 222, N-(2-fluoro-4-methylphenyl)-3-((methylamino)methyl)-1-(phenylsulfonyl)-1H-indol-6-amine hydrochloride] | 1.84 |
| CNCc1cn(S(=O)(=O)c2cccc(OC)c2)c2cc(Nc3ccc(C)cc3F)ccc12 [Example 162, N-(2-fluoro-4-methylphenyl)-1-((3-methoxyphenyl)sulfonyl)-3-((methylamino)methyl)-1H-indol-6-amine hydrochloride] | 0.02 |
| CNCc1cn(S(=O)(=O)c2cccc(OC)c2)c2cc(Nc3ccc(OC(F)(F)F)cc3Cl)ccc12 [Example 169, N-(2-chloro-4-(trifluoromethoxy)phenyl)-1-((3-methoxyphenyl)sulfonyl)-3-((methylamino)methyl)-1H-indol-6-amine hydrochloride] | 0.08 |
| CNCc1cn(S(=O)(=O)c2cccnc2)c2cc(Nc3ccc(Cl)nc3C(F)(F)F)ccc12 [Example 121, N-(6-chloro-2-(trifluoromethyl)pyridin-3-yl)-3-((methylamino)methyl)-1-(pyridin-3-ylsulfonyl)-1H-indol-6-amine hydrochloride] | 0.44 |
| CNCc1cn(S(=O)(=O)c2cccnc2)c2cc(Nc3c(C)ccnc3Cl)ccc12 [Example 127, N-(2-chloro-4-methylpyridin-3-yl)-3-((methylamino)methyl)-1-(pyridin-3-ylsulfonyl)-1H-indol-6-amine hydrochloride] | 0.64 |
| CNCc1cn(S(=O)(=O)c2ccccc2F)c2cc(Nc3ccc(C)cc3F)ccc12 [Example 224, N-(2-fluoro-4-methylphenyl)-1-((2-fluorophenyl)sulfonyl)-3-((methylamino)methyl)-1H-indol-6-amine hydrochloride] | 3.3 |
| CNCc1cn(S(=O)(=O)c2cccc(Cl)c2)c2cc(Nc3ccc(Cl)nc3Cl)ccc12 [Example 159, 1-((3-chlorophenyl)sulfonyl)-N-(2,6-dichloropyridin-3-yl)-3-((methylamino)methyl)-1H-indol-6-amine hydrochloride] | 0.34 |
| CNCc1cn(S(=O)(=O)c2cccnc2)c2cc(Nc3cc(Cl)cnc3C)ccc12 [Example 126, N-(5-chloro-2-methylpyridin-3-yl)-3-((methylamino)methyl)-1-(pyridin-3-ylsulfonyl)-1H-indol-6-amine hydrochloride] | 0.51 |
| CNCc1cn(S(=O)(=O)c2cccc(C(F)(F)F)c2)c2cc(Nc3ccc(OC(F)(F)F)cc3OC)ccc12 [Example 190, N-(2-methoxy-4-(trifluoromethoxy)phenyl)-3-((methylamino)methyl)-1-((3-(trifluoromethyl)phenyl)sulfonyl)-1H-indol-6-amine hydrochloride] | 0.44 |

Next, values leading:

| IC50 [µM] | Structure (SMILES) |
| --- | --- |
| 4.15 | CNCc1cn(S(=O)(=O)c2cccnc2)c2cc(-c3ccc(-c4ccccc4)cc3)ccc12 [Example 247, 1-(6-([1,1′-biphenyl]-4-yl)-1-(pyridin-3-ylsulfonyl)-1H-indol-3-yl)-N-methylmethanamine] |
| 5.84 | CNc1cn(S(=O)(=O)c2cccnc2)c2cc(Nc3ccc(C)cc3F)ccc12 [Example 333, N6-(2-fluoro-4-methylphenyl)-N3-methyl-1-(pyridin-3ylsulfonyl)-1H-indol-3,6-diamine hydrochloride] |
| 2.92 | CNCc1cn(S(=O)(=O)c2cccnc2)c2cc(Cc3cccnc3OC)ccc12 [Example 282, 1-(6-((2-methoxypyridin-3-yl)methyl)-1-(pyridin-3-ylsulfonyl)-1H-indol-3-yl)-N-methylmethanamine hydrochloride] |
| 1.76 | CNCc1cn(S(=O)(=O)c2cccnc2)c2cc(Cc3ccc(Cl)cc3C(F)(F)F)ccc12 [Example 275, 1-(6-(4-chloro-2-(trifluoromethyl)benzyl)-1-(pyridin-3-ylsulfonyl)-1H-indol-3-yl)-N-methylmethanamine hydrochloride] |
| 11.7 | CNCc1cn(S(=O)(=O)c2cccnc2)c2cc(-c3ccc(F)nc3)ccc12 [Example 255, 1-(6-(6-fluoropyridin-3-yl)-1-(pyridin-3-ylsulfonyl)-1H-indol-3-yl)-N-methylmethanamine hydrochloride] |
| 40 | CNCc1cn(S(=O)(=O)c2cccnc2)c2cc(-c3cnc(OC)nc3)ccc12 [Example 259, 1-(6-(2-methoxypyrimidin-5-yl)-1-(pyridin-3-ylsulfonyl)-1H-indol-3-yl)-N-methylmethanamine hydrochloride] |
| 0.93 | CNCc1cn(S(=O)(=O)c2cccc(OC(F)F)c2)c2cc(Cc3ccc(C)c(F)c3F)ccc12 [Example 290, 1-(6-(2,3-difluoro-4-methylbenzyl)-1-((3-(difluoromethoxy)phenyl)sulfonyl)-1H-indol-3-yl)-N-methylmethanamine] |
| 1.53 | CNCc1cn(S(=O)(=O)c2ccccc2F)c2cc(Cc3ccc(C)cc3Cl)ccc12 [Example 300, 1-(6-(2-chloro-4-methylbenzyl)-1-((2-fluorophenyl)sulfonyl)-1H-indol-3-yl)-N-methylmethanamine] |
| 60 | COc1ccc(Nc2ccc3c(C(=O)N(C)C)cn(S(=O)(=O)c4cccnc4)c3c2)c(Cl)n1 [Example 332, 6-((2-chloro-6-methoxypyridin-3-yl)amino)-N,N-dimethyl-1-(pyridin-3-ylsulfonyl)-1H-indol-3-carboxamide] |
| 0.57 | CNCc1cn(S(=O)(=O)c2cccc(F)c2)c2cc(Nc3ccc(C)cc3OC(F)(F)F)cnc12 [Example 340, 1-((3-fluorophenyl)sulfonyl)-N-(4-methyl-2-(trifluoromethoxy)phenyl)-3-((methylamino)methyl)-1H-pyrrolo[3,2-b]pyridin-6-amine hydrochloride] |
